PubChem BioAssay AID1963872 (Molecular Pharmacology Branch, DTP, NCI, 2024)

Test system: KRAS patient-derived spheroids with HUVEC/MSC, viability
Experiment: Anticancer human tumor 519858-162-T-J1-PDC patient-derived colon adenocarcinoma cell line growth inhibition [KRAS2]
Settings: for IC50: curve of first compound; for viability, T/C: stronger effect = lower value
Excerpt: Multicellular complex tumor spheroid response to RAS pathway inhibitors in combination with a targeted agents in patient-derived cell lines with oncogenic KRAS variants from multiple cancer types
A high-throughput screen of multi-cell type tumor spheroids was designed to identify active combinations of targeted small molecules and KRAS pathway inhibitors. Complex spheroids include a stromal component modeled by human endothelial cells (HUVEC) and fibroblasts modeled by human mesenchymal stem cells (MSCs). The concentration ranges selected for each drug and investigational agent were based upon clinically achievable concentrations if the clinical Cmax of the agent was known.
Compounds. The drugs and investigational agents: BI-3406 (NSC825286), BAY-293 (NSC824723), batoprotafib (TNO155; NSC825523), sotorasib (AMG 510; NSC818433), MRTX1257 (NSC819558), elimusertib (BAY 1895344; NSC800525), molibresib (GSK525762; NSC774829), temuterkib (LY3214996; NSC803410), venetoclax (NSC766270), alisertib (NSC759677), olaparib (NSC753686), talazoparib (NSC767125), erdafitinib (NSC781556), ipatasertib (NSC767898), cabozantinib (NSC761068), nintedanib (NSC756659), abemaciclib (NSC768073), docetaxel (NSC628503), trametinib (NSC758246), and sapanisertib (NSC764658) were obtained from the National Cancer Institute (NCI) Developmental Therapeutics Program Chemical Repository. The FDA-approved anticancer drug set is available from the Developmental Therapeutics Program. […] The stock solutions were prepared in dimethyl sulfoxide (DMSO, Sigma-Aldrich, St. Louis, MO, cat. D2650) at 800-fold the tested concentration and stored at -70 degrees C prior to their use. All drugs and investigational agents were tested over a range starting from a high concentration at or near the clinical Cmax and decreasing in half-log increments. If the clinical Cmax for an agent had not been determined, the highest concentration tested was 10 microM.
Cell Culture. All cells were maintained in an incubator at 37 degrees C and 5% CO2 with 95% humidity. The PDC lines were cultured according to standard operating procedures established by the NCI PDMR (https://pdmr.cancer.gov/sops/default.htm). Briefly, all PDCs were thawed and cultured in Matrigel-coated flasks prepared with a working solution of 1X Ham's F-12 nutrient mix, without supplementation (Invitrogen, Waltham, MA, cat. 11765054), 100 U/mL penicillin-streptomycin (Invitrogen, cat. 15140122), and 2.5% Matrigel (Corning Inc., Corning, NY, cat. 354248) for the first three passages. All PDCs were cultured in complete DMEM/F-12 media containing advanced DMEM/F-12 (Invitrogen, cat. 12634028), 4.9% defined fetal bovine serum, heat inactivated (HyClone Laboratories Inc., Logan, UT, cat. SH30070.03HI), 389 ng/mL hydrocortisone (Sigma-Aldrich, cat. H4001), 9.7 ng/mL human EGF recombinant protein (Invitrogen, cat. PHG0313), 23.4 microg/mL adenine (Sigma-Aldrich, cat. A2786), 97.3 U/mL penicillin-streptomycin (Invitrogen, cat. 15140122), 1.9 mM L-glutamine (Invitrogen, cat. 25030081), and 9.7 microM Y-27632 dihydrochloride (Tocris Bioscience, Bristol, United Kingdom, cat. 1254). The PDCs were cultured in complete DMEM/F12 media without 9.7 microM Y-27632 dihydrochloride for at least two passages prior to the screen. The established cell line HOP-62 was cultured in RPMI 1640 medium, HEPES (Invitrogen, cat. 22400105) with 10% defined fetal bovine serum (HyClone Laboratories Inc., cat. SH30070.03) and 2 mM L-glutamine (Invitrogen, cat. 25030081). The pooled donor HUVEC were cultured in endothelial cell growth medium 2 (PromoCell, Heidelberg, Germany, cat. C-22011) and the hMSC were cultured in mesenchymal stem cell growth medium 2 (PromoCell, cat. C-28009). For all experiments, HUVEC and hMSC were used at passages </=5, while the malignant cell lines were used at passages </=15. […]

[1] = second compound 0.1 µM, first compound 0.0316 µM
[2] = second compound 0.1 µM, first compound 0.1 µM
[3] = second compound 0.1 µM, first compound 0.316 µM
[4] = second compound 0.1 µM, first compound 1 µM
[5] = second compound 0.1 µM, first compound 3.16 µM
[6] = second compound 0.1 µM, first compound 10 µM
[7] = second compound 0.316 µM, first compound 0.0316 µM
[8] = second compound 0.316 µM, first compound 0.1 µM
[9] = second compound 0.316 µM, first compound 0.316 µM
[10] = second compound 0.316 µM, first compound 1 µM
[11] = second compound 0.316 µM, first compound 3.16 µM
[12] = second compound 0.316 µM, first compound 10 µM
[13] = second compound 1 µM, first compound 0.0316 µM
[14] = second compound 1 µM, first compound 0.1 µM
[15] = second compound 1 µM, first compound 0.316 µM
[16] = second compound 1 µM, first compound 1 µM
[17] = second compound 1 µM, first compound 3.16 µM
[18] = second compound 1 µM, first compound 10 µM
[19] = second compound 3.16 µM, first compound 0.0316 µM
[20] = second compound 3.16 µM, first compound 0.1 µM
[21] = second compound 3.16 µM, first compound 0.316 µM
[22] = second compound 3.16 µM, first compound 1 µM
[23] = second compound 3.16 µM, first compound 3.16 µM
[24] = second compound 3.16 µM, first compound 10 µM
[25] = second compound 10 µM, first compound 0.0316 µM
[26] = second compound 10 µM, first compound 0.1 µM
[27] = second compound 10 µM, first compound 0.316 µM
[28] = second compound 10 µM, first compound 1 µM
[29] = second compound 10 µM, first compound 3.16 µM
[30] = second compound 10 µM, first compound 10 µM
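Also: compound exposure lasted seven days before readout.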
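For viability, T/C in this document: 100% = DMSO vehicle control viability.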

Row | Structure (SMILES) | IC50 (second compound 0.1 µM) | IC50 (second compound 0.316 µM) | IC50 (second compound 1 µM) | IC50 (second compound 3.16 µM) | IC50 (second compound 10 µM) | viability, T/C [1] | viability, T/C [2] | viability, T/C [3] | viability, T/C [4] | viability, T/C [5] | viability, T/C [6] | viability, T/C [7] | viability, T/C [8] | viability, T/C [9] | viability, T/C [10] | viability, T/C [11] | viability, T/C [12] | viability, T/C [13] | viability, T/C [14] | viability, T/C [15] | further results
1 | CC1(C)CCC(CN2CCN(c3ccc(C(=O)NS(=O)(=O)c4ccc(NCC5CCOCC5)c([N+](=O)[O-])c4)c(Oc4cnc5[nH]ccc5c4)c3)CC2)=C(c2ccc(Cl)cc2)C1 + COc1cc2nc(C)nc(NC(C)c3cc(N)cc(C(F)(F)F)c3)c2cc1OC1CCOC1 | > 10 µM | > 10 µM | 5.24 µM | 6.2 µM | 2.66 µM | 105% | 85.7% | 74.5% | 82.5% | 73.6% | 101% | 116% | 92.4% | 92.3% | 78.9% | 76.5% | 52.5% | 73.7% | 79.9% | 98.9% | viability, T/C [16]: 80.5%; viability, T/C [17]: 66.8%; viability, T/C [18]: 28.6%; viability, T/C [19]: 63.5%; viability, T/C [20]: 63.3%; viability, T/C [21]: 82%; viability, T/C [22]: 69.5%; viability, T/C [23]: 73%; viability, T/C [24]: 35.8%; viability, T/C [25]: 82.1%; viability, T/C [26]: 60.9%; viability, T/C [27]: 92.9%; viability, T/C [28]: 78.6%; viability, T/C [29]: 45%; viability, T/C [30]: 37.8%
2 | COC(=O)c1ccc2c(C(=Nc3ccc(N(C)C(=O)CN4CCN(C)CC4)cc3)c3ccccc3)c(O)[nH]c2c1 + CC1OCC2(CCN(c3cnc(Sc4ccnc(N)c4Cl)c(N)n3)CC2)C1N | > 10 µM | > 10 µM | > 10 µM | > 10 µM | > 10 µM | 66% | 80% | 63.4% | 66% | 99.7% | 74.6% | 72.7% | 67.5% | 86.5% | 64.1% | 67% | 98.8% | 75.4% | 75% | 56.9% | viability, T/C [16]: 70.7%; viability, T/C [17]: 64.6%; viability, T/C [18]: 84%; viability, T/C [19]: 47.9%; viability, T/C [20]: 60.9%; viability, T/C [21]: 72.7%; viability, T/C [22]: 52.6%; viability, T/C [23]: 67.4%; viability, T/C [24]: 83.2%; viability, T/C [25]: 49.9%; viability, T/C [26]: 58%; viability, T/C [27]: 64.7%; viability, T/C [28]: 69.2%; viability, T/C [29]: 75.3%; viability, T/C [30]: 88.3%
3 | CC(C)NCC(C(=O)N1CCN(c2ncnc3c2C(C)CC3O)CC1)c1ccc(Cl)cc1 (stereo not given) + CNCc1ccccc1-c1csc(C(C)Nc2nc(C)nc3cc(OC)c(OC)cc23)c1 | > 10 µM | > 10 µM | > 10 µM | 3.88 µM | < 0.0316 µM | 88.2% | 81.7% | 94.9% | 93.7% | 89.2% | 88% | 88.5% | 91.6% | 76.3% | 88.1% | 92.5% | 93.1% | 81.7% | 76.2% | 71.1% | viability, T/C [16]: 73%; viability, T/C [17]: 85.2%; viability, T/C [18]: 79.9%; viability, T/C [19]: 42.8%; viability, T/C [20]: 59.8%; viability, T/C [21]: 60%; viability, T/C [22]: 58.3%; viability, T/C [23]: 47.7%; viability, T/C [24]: 43.8%; viability, T/C [25]: 0.36%; viability, T/C [26]: 0.39%; viability, T/C [27]: 0.34%; viability, T/C [28]: 0.3%; viability, T/C [29]: 0.82%; viability, T/C [30]: 0.78%
